In US4386103A, “Dichloroamino acid derivatives useful as potent germicidal and fungicidal agents” (Merck & Co., Inc., priority 1981, dated 1983):

Tests used:
Assay type in all cases: cell-based
[1] = tested on: Staphylococcus epidermidis; assay: Contact germicidal screen, Staphylococcus epidermidis ATCC No. 12228
Experimental: (§1) The organisms used in the contact germicidal screen are all maintained as stock cultures on nutrient agar […] 4° C. They are transferred and biochemically diagnosed monthly. The five organisms used are: The media used are: […] Overnight cultures of the test organisms are grown in tryptose phosphate broth. After 15-16 hours, the cultures are centrifuged at […] for 15 minutes, and the supernatant replaced with fresh warm (37° C.) media. After two hours of incubation, the absorbance of the culture at 650 nm is determined and diluted with nutrient broth to 1×10^7 colony forming units per ml (using a previous determined standard curve: colony forming units/ml vs. absorbance at 650). The diluted cultures are maintained at 4°-8° C. throughout the screen. The compounds are weighed into sterile 100 ml volumetric flasks, and immediately before screening dissolved in one of the following buffers: 0.1 M NaOAc pH 4.6 or 0.1 M NaH2 PO4 pH 7.0. If solubility poses a problem, 10-30% methanol is used to effect solution. Two denaturing agents are also tested: […] Horse Serum restored with 100 ml distilled water and 10% Trition×100. When used, 2.5 ml of the denaturing agent is mixed with 2.5 ml of double strength test solution thirty minutes before the bacterial suspension is added. The screen is initiated when 0.2 ml of the bacterial suspension is added to 5.0 ml of the test solution contained in a sterile 25 ml glass stoppered flask. At intervals of 0.5, 2.5, 5.0, 10.0 and 15.0 minutes, a loopful of the inoculated test solution is subcultured into 5 ml of sterile nutrient broth and mixed with a vortex, the high dilution serving to stop the action of the compound. All of the subculture tubes are incubated at 37° C. and checked for signs of growth by turbidity at 1, 3, 5 and 7 days. The earliest subculture time at which no growth is present is considered the endpoint and is recorded as the sterilization time. An aliquot of 0.2 ml of the diluted culture is transferred to 5 ml of buffer to simulate 0.2 ml in 5 ml of test solution. (a) Purity: A loopful of the inoculated buffer is streaked onto nutrient agar to check colony morphology and lack of contaminants. (b) Viability: A loopful of the inoculated buffer is subcultured to 5 ml of nutrient broth as in the screen and incubated at 37° C. for 24 hours. (c) Dilution of the Test Solution: A loopful of the test solution is transferred to a 5 ml tube of nutrient broth, and a loopful of the inoculated buffer is transferred to the same tube of broth. […] (d) Purity of Organisms in the Test Solution: After the 15 minute subculture, a loopful of the inoculated test solution is streaked onto nutrient agar to insure that contamination has not occurred during the screen. (e) lack of Bactericidal Activity of Buffers and Other Solvents: Before a buffer or other solvent is used as a diluent, it is screened against the five organisms to insure that the buffer or solvent has no antibacterial activity itself.

Staphylococcus aureus = assay: Contact germicidal screen, Staphylococcus aureus ATCC No. 6538
Experimental: as §1

[2] = tested on: Trychophyton mentagrophytes; assay: Contact fungicidal screen, Trychophyton mentagrophytes; settings: 0.1M NaOAc pH 4.6
Aspergillus fumigatus = assay: Contact fungicidal screen, Aspergillus fumigatus; settings: 0.1M NaOAc pH 4.6
Experimental: The organisms used in the Contact Fungicidal Screen are a dermatophyte, trychophyton mentagrophytes, frequently associated with athlete's foot; a yeast, Candida albican, causative agent of thrush and vaginitis; a phycomycete, Rhizopus oryzae, commonly known as black bread mold; an ascomycete, Aspergillus fumagatis, found in chicken droppings and causing lung infections; and another dermatophyte, Microsporum canis, which causes ringworm. These organisms are maintained as stock cultures at 4° C. on agar […] of the following composition: dextrose 2%, Neopeptone (Difco) 1%, agar 2%. Fluid medium of the same nutrient composition (without agar) was used to test the viability of the organisms after exposure to the fungicide. This medium is also known as Sabouraud's medium. Sabouraud's agar plate cultures of Aspergillus fumigatus, Microsporum canis, and a different culture of Trychophyton mentagrophytes are prepared by planting an inoculum at the center of an agar plate and incubating at 25°-30° C. for seven to ten days. The mycelial mats are removed from the surface of the agar and prepared in the same manner as the Rhizopus culture. The compounds are weighed into heat sterilized 100 ml volumetric flasks and immediately before screening dissolved in 0.1 M NaOAc pH 4.6 buffer (test solutions). The Aspergillus, Candida, Microsporum and Rhizopus species are screened in a slightly different manner. Basically, the procedure for the Contact Germicidal Efficiency Screen is utilized. After the test solutions are made up, 5 ml aliquots are pipetted into heat sterilized 25 ml glass stoppered erlenmeyer flasks. The screen is initiated when 0.5 ml of the 5×10^6 cell (spore) per ml suspension is added to the flask containing 5 ml of the test solution. […] The subculture tubes are incubated at 25°-30° C. for ten days with daily observation for mycelial growth. The earliest subculture time at which no growth is present is considered the endpoint and is recorded as the sterilization time. To insure the viability of the culture, a 0.5 ml aliquot of the 5×10^6 cells (spores) per ml suspension is transferred to 5 ml of the pH 4.6 buffer. A loopful of the inoculated buffer is then subcultured to 7 ml of fluid Sabouraud's medium and incubated at 25°-30° C. for ten days. To insure that the dilution of the test solution into the subculture medium does stop the action, a loopful of the test solution and a loopful of the inoculated buffer are transferred into the same subculture tube. This tube is also incubated at 25°-30° C. for ten days.

[3] = 10.0+ PPM, 0.1M NaOAc pH 4.6, screened simultaneously with four other compounds
[4] = 51.0 PPM, Triton X100 (10% solution):pH 4.6 buffer 1:1
[5] = 51.0 PPM, horse serum:pH 4.6 buffer 1:1
[6] = 300 PPM with 50% Horse Serum, 0.1M NaOAc pH 4.6
[7] = 300 PPM with 50% Triton X100, 0.1M NaOAc pH 4.6
[8] = 300 PPM, pH 4.6 buffer with 10% serum
[9] = 300 PPM, pH 4.6 buffer with 20% serum
[10] = 300 PPM, pH 4.6 buffer with 35% serum
[11] = 304.6 PPM, horse serum:pH 4.6 buffer 1:1
[12] = 304.8 PPM, Triton X100 (10% solution):pH 4.6 buffer 1:1
[13] = 606.9 PPM, pH 4.6 buffer with 33% serum
[14] = 899.25 PPM, pH 4.6 buffer with 25% serum
[15] = 1000 PPM with 50% Horse Serum, 0.1M NaOAc pH 4.6
[16] = 1001.2 PPM, horse serum:pH 4.6 buffer 1:1
[17] = 1016.0 PPM, 0.1M NaH2PO4 pH 7.0

CC(C)(CC(=O)O)N(Cl)Cl [(II)]
10.0 min: Sterilization Time ([1]; 4.5 PPM, 0.1M NaOAc pH 4.6) | Sterilization Time ([1]; 316.6 PPM, 0.1M NaH2PO4 pH 7.0) | Sterilization Time (Staphylococcus aureus; 4.5 PPM, 0.1M NaOAc pH 4.6) | Sterilization Time (Staphylococcus aureus; 107.8 PPM, 0.1M NaH2PO4 pH 7.0) | Sterilization Time (Staphylococcus aureus; [10])
15.0 min: Sterilization Time ([1]; 107.8 PPM, 0.1M NaH2PO4 pH 7.0) | Sterilization Time [1, 10] | Sterilization Time (Staphylococcus aureus; 1.8 PPM, 0.1M NaOAc pH 4.6)
2.5 min: Sterilization Time [1, 3] | Sterilization Time (summary) ([1]; 10 PPM, 0.1M NaOAc pH 4.6) | Sterilization Time ([1]; 12.2 PPM, 0.1M NaOAc pH 4.6) | Sterilization Time ([1]; 32.1 PPM, 0.1M NaOAc pH 4.6) | Sterilization Time [1, 4] | Sterilization Time [1, 9] | Sterilization Time [1, 17] | Sterilization Time (Staphylococcus aureus; [3]) | Sterilization Time (summary) (Staphylococcus aureus; 10 PPM, 0.1M NaOAc pH 4.6) | Sterilization Time (Staphylococcus aureus; 10.0 PPM, 0.1M NaOAc pH 4.6) | Sterilization Time (Staphylococcus aureus; 12.2 PPM, 0.1M NaOAc pH 4.6) | Sterilization Time (Staphylococcus aureus; 32.1 PPM, 0.1M NaOAc pH 4.6) | Sterilization Time (Staphylococcus aureus; [4]) | Sterilization Time (Staphylococcus aureus; [9]) | Sterilization Time (Staphylococcus aureus; [17])
5.0 min: Sterilization Time ([1]; 10.0 PPM, 0.1M NaOAc pH 4.6) | Sterilization Time (Staphylococcus aureus; 316.6 PPM, 0.1M NaH2PO4 pH 7.0) | Sterilization Time ([2]; 10 PPM)
0.5 min: Sterilization Time ([1]; 71.7 PPM, 0.1M NaOAc pH 4.6) | Sterilization Time (summary) ([1]; 100 PPM, 0.1M NaOAc pH 4.6) | Sterilization Time ([1]; 104.7 PPM, 0.1M NaOAc pH 4.6) | Sterilization Time ([1]; 298.9 PPM, 0.1M NaOAc pH 4.6) | Sterilization Time (summary) [1, 7] | Sterilization Time [1, 8] | Sterilization Time [1, 12] | Sterilization Time [1, 13] | Sterilization Time [1, 14] | Sterilization Time (summary) [1, 15] | Sterilization Time (summary) ([1]; 1000 PPM, 0.1M NaOAc pH 4.6) | Sterilization Time [1, 16] | Sterilization Time ([1]; 1014.8 PPM, 0.1M NaOAc pH 4.6) | Sterilization Time (Staphylococcus aureus; 71.7 PPM, 0.1M NaOAc pH 4.6) | Sterilization Time (summary) (Staphylococcus aureus; 100 PPM, 0.1M NaOAc pH 4.6) | Sterilization Time (Staphylococcus aureus; 104.7 PPM, 0.1M NaOAc pH 4.6) | Sterilization Time (Staphylococcus aureus; 298.9 PPM, 0.1M NaOAc pH 4.6) | Sterilization Time (summary) (Staphylococcus aureus; [7]) | Sterilization Time (Staphylococcus aureus; [8]) | Sterilization Time (Staphylococcus aureus; [12]) | Sterilization Time (Staphylococcus aureus; [13]) | Sterilization Time (Staphylococcus aureus; [14]) | Sterilization Time (summary) (Staphylococcus aureus; [15]) | Sterilization Time (summary) (Staphylococcus aureus; 1000 PPM, 0.1M NaOAc pH 4.6) | Sterilization Time (Staphylococcus aureus; [16]) | Sterilization Time (Staphylococcus aureus; 1014.8 PPM, 0.1M NaOAc pH 4.6) | Sterilization Time ([2]; 100 PPM) | Sterilization Time ([2]; 1000 PPM)
15 min: Sterilization Time ([1]; 1.8 PPM, 0.1M NaOAc pH 4.6) | Sterilization Time [1, 5] | Sterilization Time (summary) [1, 6] | Sterilization Time [1, 11] | Sterilization Time (Staphylococcus aureus; [5]) | Sterilization Time (summary) (Staphylococcus aureus; [6]) | Sterilization Time (Staphylococcus aureus; [11]) | Sterilization Time (Aspergillus fumigatus; 10 PPM) | Sterilization Time (Aspergillus fumigatus; 100 PPM) | Sterilization Time (Aspergillus fumigatus; 1000 PPM)
